Reference: patent US10155948B2, “Pharmaceutical composition for preventing or treating diabetic complications and screening method for preventive or therapeutic agent for diabetic complications” (KANGWON NATIONAL UNIVERSITY UNIVERSITY-INDUSTRY COOPERATION …, priority 2016, dated 2018)

Experiments:
[1] = tested on: HRECs; assay: Intracellular Ca2+ levels (Fluo4-AM, confocal) in HRECs; type: cell-based, human; conditions: 10 ng/ml VEGF, inhibitors 30 min
Method: Cells on coverslips were co-incubated with 2 μM Fluo4-AM and various inhibitors for 30 min at 37° C. Coverslips were scanned every 10 sec in the presence of 10 ng/ml VEGF using a confocal microscope (FV-300, Olympus Tokyo, Japan). Single-cell fluorescence intensities of peaks were determined for 10 randomly selected cells per trial.

[2] = molecular target: T1, TGase2 (Homo sapiens, UniProt P21980); assay: In-situ TGase activity by confocal microscopy in VEGF-treated HRECs; type: cell-based; parameters: endogenous in cells; host or cells: human retinal endothelial cells (HRECs); conditions: 10 ng/ml VEGF 2 hrs, 50 μM cystamine, 20 μM MDC, 5 μM BAPTA-AM, 1 mM NAC, 0.5 μM Trolox, p<0.001
T1 sequence (P21980 1-687): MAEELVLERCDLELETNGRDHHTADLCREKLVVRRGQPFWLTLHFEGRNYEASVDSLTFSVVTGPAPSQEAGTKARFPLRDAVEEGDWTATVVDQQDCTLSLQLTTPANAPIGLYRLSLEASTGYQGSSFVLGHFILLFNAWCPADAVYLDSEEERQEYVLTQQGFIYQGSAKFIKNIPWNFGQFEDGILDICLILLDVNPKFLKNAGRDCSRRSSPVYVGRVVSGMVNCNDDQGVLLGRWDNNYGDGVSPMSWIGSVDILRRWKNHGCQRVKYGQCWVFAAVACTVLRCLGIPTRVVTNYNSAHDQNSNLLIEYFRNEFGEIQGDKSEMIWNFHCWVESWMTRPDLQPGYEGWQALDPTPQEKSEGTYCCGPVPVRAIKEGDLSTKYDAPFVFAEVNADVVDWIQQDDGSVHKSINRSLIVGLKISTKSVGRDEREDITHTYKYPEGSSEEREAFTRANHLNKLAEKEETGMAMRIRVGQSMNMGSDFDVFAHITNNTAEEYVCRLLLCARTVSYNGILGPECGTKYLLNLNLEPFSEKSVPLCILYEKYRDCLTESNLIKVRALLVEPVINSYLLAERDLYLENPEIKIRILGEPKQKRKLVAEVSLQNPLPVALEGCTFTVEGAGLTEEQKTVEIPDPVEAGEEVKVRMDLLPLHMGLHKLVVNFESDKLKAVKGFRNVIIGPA
Method: HUVEC isolation was done by our own supply and Human retinal endothelial cells (HRECs) were purchased from the Applied Cell Biology Research Institute (Cell Systems, Kirkland, Wash.). Both respectively were grown on 2% gelatin-coated plates in a M199 medium supplemented with 20% fetal bovine serum (FBS), 3 ng/ml basic fibroblastic growth factor, 5 units/ml heparin, 100 units/ml penicillin, and 100 μg/ml streptomycin. For experiments, cells were incubated for 6 hrs in a low-serum medium supplemented with 1% FBS and antibiotics.
In-situ Tgase transamidating activity was determined via confocal microscopic assay according to a previously known procedure. In brief, cells were incubated with 1 mM 5-(biotinamido)pentylamine (BAPA) for 1 hr at 37° C., fixed with 3.7% formaldehyde in PBS for 30 min, and permeabilized with 0.2% Triton X-100 in PBS for 30 min. After incubation with a blocking solution of 2% BSA in 20 mM Tris (pH 7.6), 138 mM NaCl, and 0.1% Tween 20 for 30 min, cells were treated with Cy3-conjugated streptavidin (1:200, v/v) in the blocking solution for 1 hr. Single-cell fluorescence intensities of stained cells were determined using confocal microscopy for 10 randomly selected cells per test. TGase activities were determined by comparing average fluorescence intensities of treated cells with those of control cells (expressed as multiples thereof).
HRECs were transfected with human TGase2-specific siRNA as described previously. In brief, cells were transfected with various concentrations of human TGase2-siRNA or 100 nM control siRNA (Dharmacon, Lafayette, Colo.) using siLentFect lipid reagent (Bio-Rad Laboratories, Hercules, Calif.) according to the manufacturer's instructions. Six hours after transfection with the indicated concentrations, the medium was replaced with a fresh culture medium and the transfected cells were further incubated for 24 hrs.
A detailed description of FIGS. 1A-1F are given below. […] (A, B) HRECs were incubated with 10 ng/ml VEGF for the indicated times (A) or for 2 hrs (B) in the presence of TGase inhibitors (50 μM cystamine and 20 μM MDC), 5 μM Ca^2+ chelator BAPTA-AM, or ROS scavengers (1 mM NAC or 0.5 μM Trolox). In-situ TGase activity was determined by confocal microscopy as described in Research Design and Methods (A: Time course changes in VEGF-induced transglutaminase activation; and B: Effects of various inhibitors on VEGF-induced transglutaminase activation). (C,D) HRECs were transfected with the indicated concentrations (C) or 100 nM (D) of human TGase2-specific siRNA (TGase2 siRNA) or 100 nM control (Ctrl) siRNA. Endothelial cells were treated with 10 ng/ml VEGF and subjected to confocal microscopic determination of in-situ TGase activity (C: Dose-dependent inhibition of TGase2 expression by TGase2 siRNA, TGase2 expression being analyzed by Western blot; and D: TGase2 siRNA prevention of VEGF-induced transglutaminase activation). FIGS. 1E and 1F show the effects of various inhibitors on the elevation of intracellular Ca^2+ (E) and ROS (F). Intracellular Ca^2+ and ROS levels were determined by confocal microscopy as described in Research Design and Methods. Results are expressed as mean±SD from three independent trials (***p<0.001).

[3] = tested on: HRECs; assay: Intracellular ROS generation (H2DCFDA, confocal) in HRECs; type: cell-based, human; conditions: 10 ng/ml VEGF, inhibitors pretreated 30 min
Method: Intracellular ROS generation was determined using 2′,7′-dichlorodihydrofluorescein diacetate (H2DCFDA, Molecular Probes, Eugene, Oreg.) staining as previously described. Cells were pretreated with inhibitors for 30 min and co-incubated with 10 ng/ml of VEGF and 10 μM H2DCFDA in low-serum media (phenol red-free) for 10 min. Labeled cells were immediately analyzed using confocal microscopy (Fluoview-300, Olympus). Single-cell fluorescence intensities were determined for 10 randomly selected cells per test. Intracellular ROS levels were determined by comparing average fluorescence intensities of treated cells with those of control cells (expressed as multiples thereof). […] Intracellular Ca^2+ and ROS levels were determined by confocal microscopy as described in Research Design and Methods. Results are expressed as mean±SD from three independent trials (***p<0.001).

[4] = molecular target: T2, TGase2 (Mus musculus, UniProt P21981); assay: In-vivo TGase activity in retina of streptozotocin-diabetic mice; conditions: diabetic mice, intravitreal 2 μl: 50 mM cystamine, 20 mM MDC, 1 μM C-peptide, 2 μM Trolox, 500 mM NAC; after 24 hrs; n=8
T2 construct: from tissue; host or cells: retina of streptozotocin-diabetic C57BL/6 mice
T2 sequence (P21981 1-686): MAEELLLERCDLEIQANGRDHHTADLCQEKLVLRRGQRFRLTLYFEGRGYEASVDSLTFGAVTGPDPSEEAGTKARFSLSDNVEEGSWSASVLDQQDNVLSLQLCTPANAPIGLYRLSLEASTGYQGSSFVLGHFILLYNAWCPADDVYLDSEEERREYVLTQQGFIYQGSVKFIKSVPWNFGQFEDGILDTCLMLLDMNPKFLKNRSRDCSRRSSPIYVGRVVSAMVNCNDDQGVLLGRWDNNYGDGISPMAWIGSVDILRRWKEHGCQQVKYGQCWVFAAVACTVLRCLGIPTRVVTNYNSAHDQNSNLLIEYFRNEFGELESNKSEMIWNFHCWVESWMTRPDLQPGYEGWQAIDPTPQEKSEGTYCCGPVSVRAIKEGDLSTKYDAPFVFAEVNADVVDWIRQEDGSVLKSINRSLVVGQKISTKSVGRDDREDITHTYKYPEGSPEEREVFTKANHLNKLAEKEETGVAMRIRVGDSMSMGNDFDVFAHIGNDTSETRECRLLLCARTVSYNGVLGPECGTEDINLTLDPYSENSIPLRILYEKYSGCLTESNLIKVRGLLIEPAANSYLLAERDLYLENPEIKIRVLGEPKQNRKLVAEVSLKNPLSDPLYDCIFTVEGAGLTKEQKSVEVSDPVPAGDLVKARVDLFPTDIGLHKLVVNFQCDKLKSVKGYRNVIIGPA
Method: Two weeks after streptozotocin injection, diabetic mice were intravitreally injected with 2 μl of TGase inhibitors (50 mM cystamine or 20 mM MDC), 1 μM C-peptide (American Peptide Company, Sunnyvale, Calif.), ROS scavengers (2 μM Trolox or 500 mM NAC), or 65 μM mouse TG2-specific siRNA (Dharmacon, Lafayette, Colo.) into one eye and an equal volume of PBS or mouse control siRNA (Dharmacon, Lafayette, Colo.) into the contralateral eye. Non-diabetic mice were also intravitreally injected with 2 μl of PBS or mouse control siRNA into the eyes. After 24 hrs for inhibitors or C-peptide or 48 hrs for mouse TGase2 siRNA, mice were subjected to measurement of in-vivo TGase activity and vascular leakage from the retina.
In vivo Tgase transamidating activity was determined in mouse retina using confocal microscopy (FIG. 5A). 24 hrs after intravitreal injection of TGase2 inhibitors and C-peptide or 48 h after the injection of mouse TGase2-specific siRNA, mice were deeply anaesthetized using 2.5% avertin and 48 μl of 100 mM BAPA was injected into the left ventricle. BAPA was allowed to circulate for 10 min and mice were sacrificed by cervical dislocation. Eyes were then enucleated and immediately fixed with 4% paraformaldehyde for 45 min. Retinas were dissected in the Maltese cross-configuration and permeabilized with 0.2% Triton X-100 in PBS for 30 min at RT. After incubation with the blocking solution for 30 min, retinas were treated with FITC-conjugated streptavidin (1:200, v/v) in the blocking solution for 1 hr at RT. The superficial vessels of stained retinas (n=8 per group) were observed using confocal microscopy and fluorescence intensities were analyzed using Fluoview software (FV-300). In-vivo TGase activities were quantitatively determined using fluorescence intensities in the retinas of normal and diabetic mice.
Six-week-old male C57BL/6 mice were obtained from KOATECH (Pyeongtaek, Korea). TGase2^−/− mice (C57BL/6) were prepared by disrupting exons 5 and 6 of TGase2 by homologous recombination, as previously described. Diabetic mice were generated by a single intraperitoneal injection of streptozotocin (150 mg/kg body weight, Sigma) freshly prepared in 100 mM citrate buffer (pH 4.5) as previously described. Mice with non-fasting blood glucose levels greater than 19 mM, polyuria and glucosuria were considered diabetic. Experiments were performed in strict accordance with the guidelines of the Institutional Animal Care and Use Ethics Committee of Kangwon National University.
To validate the in-vitro findings, the present inventors further investigated the role of TGase2 in hyperglycemia-induced vascular leakage in the retina of diabetic mice. For this study, the present inventors designed an in-vivo TGase activity assay using confocal microscopy in mouse retina (FIG. 5A). In this assay, BAPA, which is a TGase2 pseudo substrate, was systemically delivered into the blood circulatory system by injection into the left ventricles of mice, and biotinylated proteins in the retinas were probed with FITC-conjugated streptavidin.
(A) A schematic diagram for determining TGase2 activity in mouse retina. (B,C) Streptozotocin-induced diabetic mice were intravitreally injected with 2 μl cystamine (diabetic+Cys), MDC (diabetic+MDC), C-peptide (diabetic+C-pep), Trolox (diabetic+Trolox) or NAC (diabetic+NAC) into one eye and an equal volume of PBS into the contralateral eye (diabetic). Non-diabetic mice were also intravitreally injected with 2 μl PBS into both eyes (normal). TGase2 activities in retinas were visualized by confocal microscopy and quantitatively determined as described in Research Design and Methods (n=8 per group). (B) Representative TGase activity images in the retinas. […] Scale bar, […]. (C) In-vivo TGase activities were quantified by measuring the fluorescence intensity in retinas (***p<0.001). […]

[5] = tested on: HRECs; assay: Visualization of actin filaments (stress fiber formation) in HRECs; type: cell-based, human; conditions: summary statement, conditions not given
Method: (§1) Actin filaments and VE-cadherin were visualized as previously described. For visualization of actin filaments, cells were treated with 10 ng/ml VEGF for 1 hr at 37° C., fixed with 3.7% formaldehyde, and permeabilized with 0.2% Triton X-100. […] For visualization of VE-cadherin, cells were preincubated with the TGase2 inhibitors for 30 min and treated with 10 ng/ml VEGF for 90 min at 37° C. Following fixation and permeabilization, cells were incubated overnight with a monoclonal anti-VE-cadherin antibody (1:200, Santa Cruz Biotechnology) at 4° C. Cells were then probed with an FITC-conjugated goat anti-mouse antibody (1:200, Sigma) and VE-cadherin was visualized using confocal microscopy. Adherens junctions are represented by histograms of VE-cadherin as indicated by dotted lines and were quantitatively analyzed using peak fluorescence intensities of the histograms at the single-cell level for 10 randomly selected cells per experiment.
(§2) (A-C) HRECs were preincubated with 50 μM cystamine (Cys) and 20 μM MDC for 30 min and treated with 10 ng/ml VEGF. Stress fibers and VE-cadherin were stained and visualized by confocal microscopy as described in Research Design and Methods (n=3) ((A) Representative images of stress fibers. Scale Bar, 30 μm. (B) Representative images of VE-cadherin. Scale Bar, 10 μm). Adherens junctions are represented by histograms of VE-cadherin as indicated by dotted lines. (C) Adherens junctions were quantitatively analyzed using the peak fluorescence intensities of the histograms at the single-cell level. The results are expressed as mean±SD from three independent trials. (D) In-vitro endothelial cell monolayer permeability assay. HRECs on inserts of Transwell® Permeable Supports were incubated with 50 μM cystamine and 20 μM MDC for 30 min and treated with 10 ng/mL VEGF for 90 min. The amount of FITC-dextran that diffused to the lower chamber was measured by a microplate spectrofluorometer (n=3) (**p<0.01).
(§3) HRECs were transfected with 100 nM human TGase2-specific siRNA (TGase2 siRNA) or 100 nM control (Ctrl) siRNA. Endothelial cells were treated with 10 ng/ml VEGF and subjected to the confocal microscopic visualization of stress fibers (A) and VE-cadherin (B), as described in Research Design and Methods (n=3). (A) TGase2 siRNA inhibition of VEGF-induced formation of stress fibers. Scale bar, 30 μm. (B) Representative images of VE-cadherin and adherens junctions represented by VE-cadherin histograms. Scale bar, 10 μm. (C) Adherens junctions were quantitatively analyzed using peak fluorescence intensities of the histograms at the single-cell level. Results are expressed as mean±SD from three independent experiments (***p<0.001).

[6] = tested on: VE-cadherin; assay: Visualization of VE-cadherin (adherens junction disruption) in HRECs; type: cell-based, human; conditions: summary statement, conditions not given
Method: as §1, §2, §3

Compound | VEGF-elevated intracellular Ca2+ levels [1] | VEGF-induced TGase activation (in-situ TGase activity) [2] | VEGF-induced intracellular ROS generation [3] | hyperglycemia-induced TGase2 activation in diabetic retina (in-vivo TGase activity) [4] | VEGF-induced stress fiber formation [5] | VEGF-induced VE-cadherin disruption [6]
CC(=O)OCOC(=O)CN(CC(=O)OCOC(C)=O)c1ccccc1OCCOc1ccccc1N(CC(=O)OCOC(C)=O)CC(=O)OCOC(C)=O [BAPTA-AM] | inhibited | inhibited | significantly inhibited |  |  | 
CC(=O)N[C@@H](CS)C(=O)O [NAC, N-acetyl cysteine] |  | inhibited |  |  |  | 
C-peptide: 31-amino acid peptide, EAEDLQVGQVELGGGPGAGSLQPLALEGSLQ (SEQ ID NO. 2), co-secreted with insulin by pancreatic β cells (listed as Homo sapiens) |  |  |  | blocked | prevented | prevented
NCCO [ethanolamine] |  |  |  |  | prevented | prevented
